Like-named read-outs stand apart in the source and are kept apart here.
Key:
HCT116 cells = test: MTT cell viability assay, HCT116; assay type: cell-based; settings: Homo sapiens, HCT-116; supplement csv, unit inferred; read-out: HCT116 IC50
Protocol: (§1) The cell lines DU145 (HTB-81, human prostate carcinoma), PC3 (CRL-1435, human prostate adenocarcinoma), MCF7 (HTB-22, human breast adenocarcinoma), MDA-MB231 (HTB-26, human breast adenocarcinoma), and HCT116 (CCL-247, human colorectal carcinoma) were obtained from ATCC (American Type Culture Collection, Manassas, VA, USA); WH1 human fibroblasts were kindly provided by Dr. Guven.[51] All the cells were maintained under standard culture conditions (37 °C; 5% CO2) in the RMPI1640 medium (PC3, MCF7, and MDA-MB231 cells), while DU145 and HCT116 cells were in the DMEM and Iscove’s medium (WH1 cells) supplemented with 10% fetal calf serum, 1% glutamine, and 1% antibiotics mixture; for HCT116 and DU145 cells, 1% sodium pyruvate and 1% non-essential amino acids were also added to the culture medium.
(§2) The 3-(4,5-dimethylthiazol-2-yl)-2,5-diphenyltetrazolium bromide (MTT) assay was performed on all the cell lines tested as previously described[52] with minor modifications. Briefly, according to the growth profiles previously defined for each cell line, adequate numbers of cells were plated in each well of a 96-well plate in 0.1 mL of complete culture medium. Cells were allowed to attach for 24 h before the treatment at 37 °C for 72 h with the compounds at concentrations ranging between 0.1 and 75 μM, bringing the final volume to 0.2 mL/well. Each experiment included eight replications per concentration tested; control samples were run with 0.2% DMSO. At the end of the incubation period, MTT (0.05 mL of a 2 mg/mL stock solution in PBS) was added to each well for 3 h at 37 °C. Cell supernatants were then carefully removed, the blue formazan crystals formed through MTT reduction by metabolically active cells were dissolved in 0.120 mL of DMSO, and the corresponding optical densities were measured at 570 nm using a Universal Microplate Reader EL800 (Bio-Tek, Winooski, VT).
(§3) IC50 values were estimated from the resulting concentration–response curves by nonlinear regression analysis using GraphPad Prism software, v. 5.0 (GraphPad, San Diego, CA, USA). Differences between IC50 values were evaluated statistically by analysis of variance with a Bonferroni post-test for multiple comparisons.

WH1 human fibroblasts = test: MTT cell viability assay, WH1 fibroblasts; assay type: cell-based; settings: Fibroblast, 72 h treatment
Protocol: as §1, §2, §3

DU145 cells = test: MTT cell viability assay, DU145; assay type: cell-based; settings: Homo sapiens, DU-145
Protocol: as §1, §2, §3

HBL100 cells = test: MTT cell viability assay, non-tumorigenic HBL100; assay type: cell-based; settings: Homo sapiens, HBL-100, 72 h treatment
Protocol: as §2, §3

MCF7 cells = test: MTT cell viability assay, MCF7; assay type: cell-based; settings: Homo sapiens
Protocol: as §1, §2, §3

MDA-MB231 cells = test: MTT cell viability assay, MDA-MB231; assay type: cell-based; settings: Homo sapiens, MDA-MB-231
Protocol: as §1, §2, §3

PC3 cells = test: MTT cell viability assay, PC3; assay type: cell-based; settings: Homo sapiens, PC-3
Protocol: as §1, §2, §3

MCF7/ADR cells = test: MTT cell viability assay, DOX-resistant MCF7/ADR; assay type: cell-based, human; settings: for IC50: Homo sapiens, NCI/ADR-RES, 72 h treatment, MTT; for R.I. (resistance index): MCF7/ADR vs MCF7
Protocol: as §2, §3

[1] = supplement csv, unit inferred, read-out: DU145 IC50
[2] = 72 h treatment, MTT, read-out: IC50 MCF7
[3] = supplement csv, unit inferred, read-out: MDA-MB231 IC50
[4] = supplement csv, unit inferred, read-out: PC3 IC50
[5] = 72 h treatment, MTT, read-out: IC50 DU145

IC50 (HCT116 cells) [µM] | IC50 (DU145 cells; [1]) [µM] | IC50 (MCF7 cells; [2]) [µM] | IC50 (MDA-MB231 cells; [3]) [µM] | IC50 (PC3 cells; [4]) [µM] | IC50 (MCF7/ADR cells) [µM] | melting point [°C] | IC50 (MCF7 cells; supplement csv, unit inferred, read-out: MCF7 IC50) [µM] | IC50 (DU145 cells; [5]) [µM] | IC50 (MDA-MB231 cells; 72 h treatment, MTT, read-out: IC50 MDA-MB231) [µM] | IC50 (PC3 cells; 72 h treatment, MTT, read-out: IC50 PC3) [µM] | SMILES | IC50 (WH1 human fibroblasts) [µM] | IC50 (HBL100 cells) [µM] | R.I. (resistance index) (MCF7/ADR cells)
9.67 ± 0.36 | 7.78 ± 1.52 | 8.8 ± 1.59 | 8.06 ± 1.05 | 6.45 ± 0.19 | 8.72 ± 1.25 | 296 to 298 |  |  |  |  | O=C(O)c1cn(C2CC2)c2cc(N3CCN(c4ccc([N+](=O)[O-])c(C(F)(F)F)c4)CC3)c(F)cc2c1=O [Compound 1a, 1-Cyclopropyl-6-fluoro-7-(4-(4-nitro-3-(trifluoromethyl)phenyl)piperazin-1-yl)-4-oxo-1,4-dihydroquinoline-3-carboxylic Acid] | 9.17 ± 0.6 | 7.79 ± 0.66 | 1.0
10.4 ± 1.5 | 2.85 ± 0.01 |  | 6.93 ± 0.85 | 3.07 ± 0.64 | 5.63 | 310 to 312 | 5.24 ± 0.7 |  |  |  | CCn1cc(C(=O)O)c(=O)c2cc(F)c(N3CCN(c4ccc([N+](=O)[O-])c(C(F)(F)F)c4)CC3)cc21 [Compound 1b, 1-Ethyl-6-fluoro-7-(4-(4-nitro-3-(trifluoromethyl)phenyl)piperazin-1-yl)-4-oxo-1,4-dihydroquinoline-3-carboxylic Acid] | 5.35 ± 1.14 | 9.26 ± 1.79 | 1.1
6.93 ± 1.53 | 5.67 ± 0.06 | 15.5 ± 1.2 | 10.7 ± 1.9 | 15.9 ± 0.5 | 19.6 ± 3.2 | 265 to 267 |  |  |  |  | COC(=O)c1cn(C2CC2)c2cc(N3CCN(c4ccc([N+](=O)[O-])c(C(F)(F)F)c4)CC3)c(F)cc2c1=O [Compound 3a, Methyl 1-Cyclopropyl-6-fluoro-7-(4-(4-nitro-3-(trifluoromethyl)phenyl)piperazin-1-yl)-4-oxo-1,4-dihydroquinoline-3-carboxylate] | 8.38 ± 1.2 | 10.6 ± 2.4 | 1.3
9.73 ± 2.25 | 6.06 ± 0.51 | 11.7 ± 1.4 | 10.2 ± 3.1 | 15.3 ± 1.2 | 15 ± 2.1 | 236 to 238 |  |  |  |  | CCn1cc(C(=O)OC)c(=O)c2cc(F)c(N3CCN(c4ccc([N+](=O)[O-])c(C(F)(F)F)c4)CC3)cc21 [Compound 3b, Methyl 1-Ethyl-6-fluoro-7-(4-(4-nitro-3-(trifluoromethyl)phenyl)piperazin-1-yl)-4-oxo-1,4-dihydroquinoline-3-carboxylate] | 9 ± 1.91 | 12 ± 1.7 | 1.3
15.7 ± 2 | 4.8 ± 0.96 | 16.8 ± 2.4 | 16.1 ± 2.1 | 6.72 ± 0.35 | 15.1 ± 2.3 | 231 to 233 |  |  |  |  | COC(=O)c1cn(C2CC2)c2cc(N3CCN(CCNc4ccc([N+](=O)[O-])c(C(F)(F)F)c4)CC3)c(F)cc2c1=O [Compound 6a, Methyl 1-Cyclopropyl-6-fluoro-7-(4-(2-((4-nitro-3-(trifluoromethyl)phenyl)amino)ethyl)piperazin-1-yl)-4-oxo-1,4-dihydroquinoline-3-carboxylate] | 10.5 ± 2.5 | 9.76 ± 0.9 | 0.9
5.21 ± 0.73 | 14 ± 1.4 | 12.1 ± 1.1 | 3.76 ± 0.94 | 3.17 ± 0.47 | 18.76 ± 0.1 | 202 to 204 |  |  |  |  | COC(=O)c1cn(C2CC2)c2cc(N3CCN(CCCNc4ccc([N+](=O)[O-])c(C(F)(F)F)c4)CC3)c(F)cc2c1=O [Compound 6b, Methyl 1-Cyclopropyl-6-fluoro-7-(4-(3-((4-nitro-3-(trifluoromethyl)phenyl)amino)propyl)piperazin-1-yl)-4-oxo-1,4-dihydroquinoline-3-carboxylate] | 13.2 ± 3.4 | 12.2 ± 2 | 1.5
12.4 ± 2.9 | 4.77 ± 0.99 | 15.04 ± 0.1 | 11.9 ± 1 | 9.26 ± 1.29 | 17.2 ± 1 | 245 to 247 |  |  |  |  | CCn1cc(C(=O)OC)c(=O)c2cc(F)c(N3CCN(CCNc4ccc([N+](=O)[O-])c(C(F)(F)F)c4)CC3)cc21 [Compound 6c, Methyl 1-Ethyl-6-fluoro-7-(4-(2-((4-nitro-3-(trifluoromethyl)phenyl)amino)ethyl)piperazin-1-yl)-4-oxo-1,4-dihydroquinoline-3-carboxylate] | 10.6 ± 1.9 | 10.8 ± 0.6 | 1.1
11.7 ± 2.1 | 5.49 ± 0.97 | 10.5 ± 1.2 | 8.89 ± 1.65 | 4.1 ± 0.61 | 28 ± 1.1 | 216 to 218 |  |  |  |  | CCn1cc(C(=O)OC)c(=O)c2cc(F)c(N3CCN(CCCNc4ccc([N+](=O)[O-])c(C(F)(F)F)c4)CC3)cc21 [Compound 6d, Methyl 1-Ethyl-6-fluoro-7-(4-(3-((4-nitro-3-(trifluoromethyl)phenyl)amino)propyl)piperazin-1-yl)-4-oxo-1,4-dihydroquinoline-3-carboxylate] | 9.67 ± 1.65 | 3.68 ± 0.2 | 2.7
5.29 ± 0.72 | 2.56 ± 0.21 | 3.12 ± 0.62 | 2.24 ± 0.18 | 2.48 ± 0.42 | 14.7 ± 4.2 |  |  | < 3 | < 2.5 | < 3 | O=C(O)c1cn(C2CC2)c2cc(N3CCN(CCNc4ccc([N+](=O)[O-])c(C(F)(F)F)c4)CC3)c(F)cc2c1=O [Compound 7a, 1-Cyclopropyl-6-fluoro-7-(4-(2-((4-nitro-3-(trifluoromethyl)phenyl)amino)ethyl)piperazin-1-yl)-4-oxo-1,4-dihydroquinoline-3-carboxylic Acid] | 5.7 ± 0.92 | 9.14 ± 0.44 | 4.7
5.36 ± 0.65 |  | 5.83 ± 0.82 | 3.64 ± 0.63 | 4.83 ± 1.15 | 20 ± 0.3 |  |  | 1.56 |  |  | CCn1cc(C(=O)O)c(=O)c2cc(F)c(N3CCN(CCCNc4ccc([N+](=O)[O-])c(C(F)(F)F)c4)CC3)cc21 [Compound 7d, 1-Ethyl-6-fluoro-7-(4-(3-((4-nitro-3-(trifluoromethyl)phenyl)amino)propyl)piperazin-1-yl)-4-oxo-1,4-dihydroquinoline-3-carboxylic Acid] | 8.94 ± 0.91 | 10.4 ± 0.9 | 3.4
 |  |  |  |  | 66.9 ± 2.56 |  |  |  |  |  | COc1cccc2c1C(=O)c1c(O)c3c(c(O)c1C2=O)C[C@@](O)(C(=O)CO)C[C@@H]3O[C@H]1C[C@H](N)[C@H](O)[C@H](C)O1 [DOX, doxorubicin, reference compound] |  |  | 

— PMC8389907 (Journal of Medicinal Chemistry, 2021)
